From patent US20240325386A1, “THERAPEUTIC AGENT FOR COVID-19” (FUJIFILM Toyama Chemical Co., Ltd., priority 2021, published 2024)
Where two headings read alike, the source gives them in different places.

Tests used:
SARS-CoV-2 [1] = conditions: Japanese phase III clinical study, as reported in Non-patent Literature 4 (news release); cited from earlier work
SARS-CoV-2 [2] = assay type: in vivo
[3] = mITT, N = 107, improvement in body temperature, SpO2, chest imaging and SARS-CoV-2 negative conversion

For `NC(=O)c1nc(F)cnc1O` [Compound A, 6-fluoro-3-hydroxy-2-pyrazinecarboxamide], the “time to improvement of body temperature, SpO2, chest image findings and SARS-CoV-2 negative conversion (primary endpoint) shorter than in the control group” value (SARS-CoV-2 [1]) is given as “approximately 3 days”, the “median time to improvement shorter than in the control group” value (SARS-CoV-2 [2]; mITT, Compound A group 107 patients vs control group 49 patients) is given as “approximately 3 days” and the Patients with improvement (SARS-CoV-2 [2]; mITT, Compound A group N = 107, 1,800 mg BID Day 1 + 800 mg BID up to 13 days, oral, plus standard of care) is given as 81. For the same compound, the “Median time to improvement in 25% of patients” value (SARS-CoV-2 [2]; [3]) was 7.8 days, the “Median time to improvement in 50% of patients” value (SARS-CoV-2 [2]; [3]) was 11.9 days and the “Median time to improvement in 75% of patients” value (SARS-CoV-2 [2]; [3]) was 15.6 days. For the same compound, the “median time to improvement shorter than in the control group” value (SARS-CoV-2 [2]; subgroup of patients testing negative for both IgG antibody and IgA antibody) was “approximately 5 days”.
